Experimental data: US20190144423A1, “AMIDE-SUBSTITUTED PYRIDINYLTRIAZOLE DERIVATIVES AND USES THEREOF” (BAYER PHARMA AKTIENGESELLSCHAFT, priority 2016, published 2019)

Assays:
human V2 receptor = target: T1, human V2 receptor (Homo sapiens, UniProt P30518); assay: Cellular in vitro assay for determining vasopressin receptor activity (V2 cell line, CRE-luciferase); format: cell-based; conditions: CHO cell line transfected with human V2 receptor; antagonism of [Arg8]-vasopressin at EC50; Table 1A, compounds of the invention; read-out: IC50 hV2
T1 construct: expressed in transfected cells; host or cells: CHO K1 (ATCC) line expressing firefly luciferase under a CRE-responsive promoter
Experimental: (§1) B-1. Cellular In Vitro Assay for Determining Vasopressin Receptor Activity
(§2) The identification of agonists and antagonists of the V1a and V2 vasopressin receptors from humans, rats and dogs as well as the quantification of the activity of the compounds of the invention is carried out using recombinant cell lines. These cell lines originally derive from a hamster's ovary epithelial cell (Chinese Hamster Ovary, CHO K1, ATCC: American Type Culture Collection, Manassas, Va. 20108, USA). The test cell lines constitutively express the human, rat or dog V1a or V2 receptors. In case of the Gαq-coupled V1a receptors, cells are also stably transfected with a modified form of the calcium-sensitive photoproteins aequorin (human and rat V1a) or obelin (dog V1a), which, after reconstitution with the cofactor coelenterazine, emit light when there are increases in free calcium concentrations [Rizzuto R, Simpson A W, Brini M, Pozzan T, Nature 358, 325-327 (1992); Illarionov B A, Bondar V S, Illarionova V A, Vysotski E S, Gene 153 (2), 273-274 (1995)]. The resulting vasopressin receptor cells react to stimulation of the recombinantly expressed V1a receptors by intracellular release of calcium ions, which can be quantified by the resulting photoprotein luminescence. The Gs-coupled V2 receptors are stably transfected into cell lines expressing the gene for firefly luciferase under control of a CRE-responsible promoter. Activation of V2 receptors induces the activation of the CRE-responsive promoter via cAMP increase, thereby inducing the expression of firefly luciferase. The light emitted by photoproteins of V1a cell lines as well as the light emitted by firefly luciferase of V2 cell lines corresponds to the activation or inhibition of the respective vasopressin receptor. The bioluminescence of the cell lines is detected using a suitable luminometer [Milligan G, Marshall F, Rees S, Trends in Pharmacological Sciences 17, 235-237 (1996)].
Vasopressin V2 Receptor Cell Lines:
On the day before the assay, the cells are plated out in culture medium (DMEM/F12, 2% FCS, 2 mM glutamine, 10 mM HEPES) in 384-well microtiter plates and kept in a cell incubator (96% humidity, 5% v/v CO2, 37° C.). On the day of the assay, test compounds in various concentrations and the agonist [Arg^s]-vasopressin at EC50 concentration are added together to the wells, and plates are incubated for 3 hours in a cell incubator. Upon addition of the cell lysis reagent Triton™ and the substrate luciferin, luminescence of firefly luciferase is measured in a luminometer.
(§3) Table 1A below lists individual IC50 values for the compounds of the invention (including racemic mixtures as well as separated enantiomers) that were obtained from cell lines transfected with the human V1a or V2 receptor: […]

human V1a receptor = target: T2, human V1a receptor (Homo sapiens, UniProt P37288); assay: Cellular in vitro assay for determining vasopressin receptor activity (V1a cell line, aequorin luminescence); format: cell-based; conditions: Table 1A, compounds of the invention; for IC50: CHO cell line transfected with human V1a receptor, antagonism of [Arg8]-vasopressin at EC50, read-out: IC50 hV1a; for ratio IC50 hV2/hV1a: selectivity ratio
T2 construct: expressed in transfected cells; host or cells: CHO K1 (ATCC), also stably transfected with a modified aequorin
Experimental: as §1, §2
Vasopressin V1a Receptor Cell Lines:
On the day before the assay, the cells are plated out in culture medium (DMEM/F12, 2% FCS, 2 mM glutamine, 10 mM HEPES, 5 μg/ml coelenterazine) in 384-well microtiter plates and kept in a cell incubator (96% humidity, 5% v/v CO2, 37° C.). On the day of the assay, test compounds in various concentrations are placed for 10 minutes in the wells of the microtiter plate before the agonist [Arg^8]-vasopressin at EC50 concentration is added. The resulting light signal is measured immediately in a luminometer.
as §3

T2 sequence (P37288 whole entry): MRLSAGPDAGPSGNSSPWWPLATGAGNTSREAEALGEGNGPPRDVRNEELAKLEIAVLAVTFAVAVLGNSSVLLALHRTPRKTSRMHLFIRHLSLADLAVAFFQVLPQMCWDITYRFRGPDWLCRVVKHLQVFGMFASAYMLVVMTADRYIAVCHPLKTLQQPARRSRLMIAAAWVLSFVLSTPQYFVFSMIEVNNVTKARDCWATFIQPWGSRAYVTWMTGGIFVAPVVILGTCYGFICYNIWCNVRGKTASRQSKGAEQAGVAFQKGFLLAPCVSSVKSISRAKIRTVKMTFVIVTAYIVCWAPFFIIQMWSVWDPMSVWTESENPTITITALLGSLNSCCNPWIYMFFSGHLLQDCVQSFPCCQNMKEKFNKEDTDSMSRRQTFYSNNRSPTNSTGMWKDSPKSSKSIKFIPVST
T1 sequence (P30518 whole entry): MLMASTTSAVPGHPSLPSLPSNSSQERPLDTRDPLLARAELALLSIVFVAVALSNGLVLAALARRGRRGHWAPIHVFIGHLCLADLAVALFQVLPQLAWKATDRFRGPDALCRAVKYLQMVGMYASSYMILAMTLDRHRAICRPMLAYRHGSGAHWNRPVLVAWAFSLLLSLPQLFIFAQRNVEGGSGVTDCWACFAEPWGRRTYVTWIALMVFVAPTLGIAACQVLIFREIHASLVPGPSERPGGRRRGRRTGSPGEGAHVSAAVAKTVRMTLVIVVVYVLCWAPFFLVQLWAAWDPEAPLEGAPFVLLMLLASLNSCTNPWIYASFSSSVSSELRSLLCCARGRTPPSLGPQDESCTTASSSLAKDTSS

Compound | IC50 (human V2 receptor) [nM] | IC50 (human V1a receptor) [nM] | ratio IC50 hV2/hV1a (human V1a receptor)
NC(=O)c1nc(Cn2nc(-c3ccc(Cl)cc3)n(C[C@H](O)C(F)(F)F)c2=O)nn1-c1ncccc1Cl [Example 1, 3-({3-(4-Chlorophenyl)-5-oxo-4-[(2S)-3,3,3-trifluoro-2-hydroxypropyl]-4,5-dihydro-1H-1,2,4-triazol-1-yl}methyl)-1-(3-chloropyridin-2-yl)-1H-1,2,4-triazole-5-carboxamide] | 39 | 1.02 | 
NC(=O)c1nc(Cn2nc(-c3ccc(Cl)cc3)n(C[C@H](O)C(F)(F)F)c2=O)nn1-c1ncccc1C(F)(F)F [Example 2, 3-({3-(4-Chlorophenyl)-5-oxo-4-[(2S)-3,3,3-trifluoro-2-hydroxypropyl]-4,5-dihydro-1H-1,2,4-triazol-1-yl}methyl)-1-[3-(trifluoromethyl)pyridin-2-yl]-1H-1,2,4-triazole-5-carboxamide] | 170 | 1.2 | 
NC(=O)c1nc(Cn2nc(-c3ccc(Cl)cc3)n(C[C@H](O)C(F)(F)F)c2=O)nn1-c1ncccc1OC(F)(F)F [Example 3, 3-({3-(4-Chlorophenyl)-5-oxo-4-[(2S)-3,3,3-trifluoro-2-hydroxypropyl]-4,5-dihydro-1H-1,2,4-triazol-1-yl}methyl)-1-[3-(trifluoromethoxy)pyridin-2-yl]-1H-1,2,4-triazole-5-carboxamide] | 875 | 16 | 
NC(=O)c1nc(Cn2nc(-c3ccc(Cl)cc3)n(C[C@H](O)C(F)(F)F)c2=O)nn1-c1ncccc1Br [Example 4, 1-(3-Bromopyridin-2-yl)-3-({3-(4-chlorophenyl)-5-oxo-4-[(2S)-3,3,3-trifluoro-2-hydroxypropyl]-4,5-dihydro-1H-1,2,4-triazol-1-yl}methyl)-1H-1,2,4-triazole-5-carboxamide] | 89.3 | 1.23 | 
CCOC(=O)c1cccnc1-n1nc(Cn2nc(-c3ccc(Cl)cc3)n(C[C@H](O)C(F)(F)F)c2=O)nc1C(N)=O [Example 5, Ethyl 2-[5-carbamoyl-3-({3-(4-chlorophenyl)-5-oxo-4-[(2S)-3,3,3-trifluoro-2-hydroxypropyl]-4,5-dihydro-1H-1,2,4-triazol-1-yl}methyl)-1H-1,2,4-triazol-1-yl]nicotinate] | 1240 | 14.5 | 
NC(=O)c1nc(Cn2nc(-c3ccc(Cl)cc3)n(C[C@H](O)C(F)(F)F)c2=O)nn1-c1cnccc1Cl [Example 6, 3-({3-(4-Chlorophenyl)-5-oxo-4-[(2S)-3,3,3-trifluoro-2-hydroxypropyl]-4,5-dihydro-1H-1,2,4-triazol-1-yl}methyl)-1-(4-chloropyridin-3-yl)-1H-1,2,4-triazole-5-carboxamide] | 25 | 0.57 | 
NC(=O)c1nc(Cn2nc(-c3ccc(Cl)cc3)n(C[C@H](O)C(F)(F)F)c2=O)nn1-c1cnccc1C(F)(F)F [Example 7, 3-({3-(4-Chlorophenyl)-5-oxo-4-[(2S)-3,3,3-trifluoro-2-hydroxypropyl]-4,5-dihydro-1H-1,2,4-triazol-1-yl}methyl)-1-[4-(trifluoromethyl)pyridin-3-yl]-1H-1,2,4-triazole-5-carboxamide] | 293 | 2.5 | 
CCOC(=O)c1ccncc1-n1nc(Cn2nc(-c3ccc(Cl)cc3)n(C[C@H](O)C(F)(F)F)c2=O)nc1C(N)=O [Example 8, Ethyl 3-[5-carbamoyl-3-({3-(4-chlorophenyl)-5-oxo-4-[(2S)-3,3,3-trifluoro-2-hydroxypropyl]-4,5-dihydro-1H-1,2,4-triazol-1-yl}methyl)-1H-1,2,4-triazol-1-yl]isonicotinate] | 892 | 25.5 | 35.0
NC(=O)c1cccnc1-n1nc(Cn2nc(-c3ccc(Cl)cc3)n(C[C@H](O)C(F)(F)F)c2=O)nc1C(N)=O [Example 9, 2-[5-carbamoyl-3-({3-(4-chlorophenyl)-5-oxo-4-[(2S)-3,3,3-trifluoro-2-hydroxypropyl]-4,5-dihydro-1H-1,2,4-triazol-1-yl}methyl)-1H-1,2,4-triazol-1-yl]nicotinamide] | 2250 | 75 | 30.0
NC(=O)c1nc(Cn2nc(-c3ccc(Cl)cc3)n(C[C@@H](O)C(F)(F)F)c2=O)nn1-c1ncccc1Cl [Example 10, 3-({3-(4-Chlorophenyl)-5-oxo-4-[(2R)-3,3,3-trifluoro-2-hydroxypropyl]-4,5-dihydro-1H-1,2,4-triazol-1-yl}methyl)-1-(3-chloropyridin-2-yl)-1H-1,2,4-triazole-5-carboxamide] | 790 | 6.8 | 
NC(=O)c1nc(Cn2nc(-c3ccc(Cl)cc3)n(C[C@@H](O)C(F)(F)F)c2=O)nn1-c1ncccc1C(F)(F)F [Example 11, 3-({3-(4-Chlorophenyl)-5-oxo-4-[(2R)-3,3,3-trifluoro-2-hydroxypropyl]-4,5-dihydro-1H-1,2,4-triazol-1-yl}methyl)-1-[3-(trifluoromethyl)pyridin-2-yl]-1H-1,2,4-triazole-5-carboxamide] | 610 | 3.1 | 
NC(=O)c1nc(Cn2nc(-c3ccc(Cl)cc3)n(C[C@@H](O)C(F)(F)F)c2=O)nn1-c1cnccc1Cl [Example 12, 3-({3-(4-Chlorophenyl)-5-oxo-4-[(2R)-3,3,3-trifluoro-2-hydroxypropyl]-4,5-dihydro-H-1,2,4-triazol-1-yl}methyl)-1-(4-chloropyridin-3-yl)-1H-1,2,4-triazole-5-carboxamide] | 860 | 3.45 | 
NC(=O)c1nc(Cn2nc(-c3ccc(Cl)cc3)n(C[C@@H](O)C(F)(F)F)c2=O)nn1-c1cnccc1C(F)(F)F [Example 13, 3-({3-(4-Chlorophenyl)-5-oxo-4-[(2R)-3,3,3-trifluoro-2-hydroxypropyl]-4,5-dihydro-H-1,2,4-triazol-1-yl}methyl)-1-[4-(trifluoromethyl)pyridin-3-yl]-1H-1,2,4-triazole-5-carboxamide] | 690 | 1.6 | 
NC(=O)c1nc(Cn2nc(-c3ccc(Cl)cc3)n(CC(=O)C(F)(F)F)c2=O)nn1-c1ncccc1Cl [Example 14, 3-{[3-(4-Chlorophenyl)-5-oxo-4-(3,3,3-trifluoro-2-oxopropyl)-4,5-dihydro-H-1,2,4-triazol-1-yl]methyl}-1-(3-chloropyridin-2-yl)-1H-1,2,4-triazole-5-carboxamide] | 104 | 5.2 | 20.0
NC(=O)c1nc(Cn2nc(-c3ccc(Cl)cc3)n(CC(=O)C(F)(F)F)c2=O)nn1-c1ncccc1Br [Example 15, 1-(3-Bromopyridin-2-yl)-3-{[3-(4-chlorophenyl)-5-oxo-4-(3,3,3-trifluoro-2-oxopropyl)-4,5-dihydro-1H-1,2,4-triazol-1-yl]methyl}-1H-1,2,4-triazole-5-carboxamide] | 637 | 13.5 | 
NC(=O)c1nc(Cn2nc(-c3ccc(Cl)cc3)n(CC(=O)C(F)(F)F)c2=O)nn1-c1cnccc1Cl [Example 16, 3-{[3-(4-Chlorophenyl)-5-oxo-4-(3,3,3-trifluoro-2-oxopropyl)-4,5-dihydro-1H-1,2,4-triazol-1-yl]methyl}-1-(4-chloropyridin-3-yl)-1H-1,2,4-triazole-5-carboxamide] | 75 | 1.4 | 
NC(=O)c1nc(Cn2nc(-c3ccc(Cl)cc3)n(CC(=O)C(F)(F)F)c2=O)nn1-c1ncccc1C(F)(F)F [Example 17, 3-{[3-(4-Chlorophenyl)-5-oxo-4-(3,3,3-trifluoro-2-oxopropyl)-4,5-dihydro-H-1,2,4-triazol-1-yl]methyl}-1-[3-(trifluoromethyl)pyridin-2-yl]-1H-1,2,4-triazole-5-carboxamide] |  |  | 66.0
